Experimental data: ChEMBL document CHEMBL3822366, “Design, synthesis and anticancer activity of novel hybrid compounds between benzofuran and N-aryl piperazine” (Bioorg Med Chem Lett, 2016)

Key:
HeLa = test: Cytotoxicity against human HeLa cells after 48 hrs by MTT assay; assay type: functional, cell-based
[1] = Cytotoxicity against human SGC7901 cells after 48 hrs by MTT assay; assay type: functional, cell-based; conditions: SGC-7901, 48 h
MCF7 = test: Cytotoxicity against human MCF7 cells after 48 hrs by MTT assay; assay type: functional, cell-based; conditions: MCF7, 48 h
A549 = test: Cytotoxicity against human A549 cells after 48 hrs by MTT assay; assay type: functional, cell-based; conditions: A549, 48 h
[2] = Cytotoxicity against human L02 cells at <40 uM after 48 hrs by MTT assay; assay type: cell-based; conditions: l02, 48 h

| Compound | IC50 (HeLa) [µM] | IC50 [1] [µM] | IC50 (MCF7) [µM] | IC50 (A549) [µM] | Activity [2] |
| --- | --- | --- | --- | --- | --- |
| CCN(CC)c1ccc2cc(C(=O)c3ccc(N4CCN(C(=O)c5ccc([N+](=O)[O-])c([N+](=O)[O-])c5)CC4)cc3)oc2c1 | 25.2 | > 40 | 19.6 | > 40 |  |
| CCN(CC)c1ccc2cc(C(=O)c3ccc(N4CCN(S(=O)(=O)c5ccc(Br)c(F)c5)CC4)cc3)oc2c1 | 20.7 | > 40 | 2.27 | 15.1 |  |
| CCN(CC)c1ccc2cc(C(=O)c3ccc(N4CCN(S(=O)(=O)c5ccc(C(F)(F)F)cc5)CC4)cc3)oc2c1 | 9.72 | 0.17 | > 40 | 11.1 |  |
| CCN(CC)c1ccc2cc(C(=O)c3ccc(N4CCN(C(=O)c5cccc(C(F)(F)F)c5)CC4)cc3)oc2c1 | 0.4 | 11.3 | 34.1 | 9.27 |  |
| CCN(CC)c1ccc2cc(C(=O)c3ccc(N4CCN(S(=O)(=O)c5ccc([N+](=O)[O-])cc5)CC4)cc3)oc2c1 | > 40 | 1.86 | > 40 | 24.4 |  |
| CCN(CC)c1ccc2cc(C(=O)c3ccc(N4CCN(S(C)(=O)=O)CC4)cc3)oc2c1 | > 40 | > 40 | > 40 | > 40 |  |
| CCN(CC)c1ccc2cc(C(=O)c3ccc(N4CCN(S(=O)(=O)c5ccc(F)cc5)CC4)cc3)oc2c1 | 21.6 | > 40 | 21.7 | 16.4 |  |
| CCN(CC)c1ccc2cc(C(=O)c3ccc(N4CCN(C(=O)c5ccccc5)CC4)cc3)oc2c1 | 15.2 | > 40 | > 40 | > 40 |  |
| CCN(CC)c1ccc2cc(C(=O)c3ccc(N4CCN(C(C)=O)CC4)cc3)oc2c1 | 5.15 | 25.6 | 16.2 | 30.1 |  |
| CCN(CC)c1ccc2cc(C(=O)c3ccc(N4CCN(C(=O)c5ccccc5Cl)CC4)cc3)oc2c1 | 0.34 | 12 | 26.3 | 6.11 |  |
| CCN(CC)c1ccc2cc(C(=O)c3ccc(N4CCN(C(=O)c5ccc(Br)cc5F)CC4)cc3)oc2c1 | 0.53 | 13.5 | > 40 | 20.4 |  |
| CCN(CC)c1ccc2cc(C(=O)c3ccc(N4CCN(C(=O)c5ccc(Cl)c(Cl)c5)CC4)cc3)oc2c1 | 15.2 | 5.84 | 8.08 | 0.22 |  |
| CCOC(=O)N1CCN(c2ccc(C(=O)c3cc4ccc(N(CC)CC)cc4o3)cc2)CC1 | 20.3 | > 40 | > 40 | > 40 |  |
| CCN(CC)c1ccc2cc(C(=O)c3ccc(N4CCN(S(=O)(=O)c5ccc(Br)cc5)CC4)cc3)oc2c1 | > 40 | > 40 | 26.1 | 34.3 |  |
| CCN(CC)c1ccc2cc(C(=O)c3ccc(N4CCN(S(=O)(=O)c5ccc(C)cc5)CC4)cc3)oc2c1 | 37.8 | > 40 | > 40 | > 40 |  |
| CCN(CC)c1ccc2cc(C(=O)c3ccc(N4CCN(C(=O)COc5ccc(Cl)cc5Cl)CC4)cc3)oc2c1 | 0.03 | 6.17 | 12.4 | 5.73 | Non-toxic |
